Publication PMC8949944, “The Effect of Microbubble-Assisted Ultrasound on Molecular Permeability across Cell Barriers” (Pharmaceutics, 2022)
Where “and” joins values, the source holds several entries; their conditions need not be identical. Identical values can stand only once. Entries after “also recorded” stand apart in the source; their conditions may differ.

Legend:
[1] = tested on: epithelial (MDCK II) cell barrier; test: Permeability of model drugs across epithelial (MDCK II) barrier on transwell after USMB or sham treatment; type: in vitro ADME, canine; conditions: for total permeated amount: 0 MPa (sham, absence of USMB), 120 min, apical-to-basolateral; for effect of USMB on permeability across epithelial barrier: increasing ultrasound pressures 0.3-0.7 MPa vs sham
Protocol: (§1) For the permeability studies, epithelial cells were cultured as tight monolayers on transwell membranes. […] Prior to cell seeding, the transwell membranes were equilibrated for 10 min with culture medium at room temperature. […] The permeability of various test compounds across epithelial monolayers cultured on transwell membranes was studied in the apical-to-basolateral direction (Figure 1A). […] Ultrasound experiments were performed using an unfocused, single-element transducer with 20 mm diameter (PA420, Precision Acoustics, Dorchester, UK). […] The resulting signal was then amplified (AG1012, T&C Power Conversion Inc., New York, NY, USA) before it was sent to the ultrasound transducer. A dedicated sonication tank compatible with transwell inserts was used for the USMB experiments (Figure 1B). The ultrasound transducer was positioned at the bottom of the bath and about 250 mL of PBS at 37 °C was added. Subsequently, the transwell insert was immersed in the bath with the transwell membrane covered with cells facing down (Figure 1B) at a fixed axial distance (80 mm) from the ultrasound transducer. Transwell inserts were randomly assigned to USMB-treated or sham-treated sample groups. Following immersion of USMB-treated samples in the sonication bath, 500 μL of freshly mixed SonoVue^TM microbubbles (Bracco, Milan, Italy) was injected near the cells using a curved-tip 19G needle (Figure 1C). […] Microbubbles were allowed to float for 1 min so that direct contact with the cells was assured. Subsequently, ultrasound was applied for 1 min with acoustic peak negative pressure (Pneg) ranging between 0.3 and 0.7 MPa. […] Sham-treated samples were immersed in the PBS bath for 2 min and served as negative controls (0 MPa). […] Immediately after USMB treatment, transwell inserts were removed from the sonication bath (containing PBS) and were placed in a new six-well plate. […] The initial concentration of test compounds on the apical side was 1 μCi/mL for propranolol and mannitol and 200 μM for 6-carboxyfluorescein and fluorescent dextrans. An overview of the relevant physicochemical characteristics of the test compounds used in the permeability experiments is given in Table 1. […] The volume of removed sample was replaced with fresh HBSS. During the experiment, cells were kept at 37 °C and shaking at 170 rounds per minute. In the experiments where fluorescent compounds were used, samples were protected from light at all times. The samples containing radioactively-labelled compounds were equilibrated overnight in liquid scintillation cocktail for radiometric detection (Ultima Gold, 6013321, Perkin Elmer) at room temperature. Detection of radioactivity counts was determined by a microplate counter for radiometric counting (MicroBeta, 2450, Perkin Elmer). Intensity of fluorescence signals was determined by a spectrofluorophotometer (FP 8300, Jasco Benelux BV, Utrecht, The Netherlands). 6-carboxyfluorescein was excited at 492 nm and emission was detected at 517/5 nm (center wavelength/bandwidth) and TRITC-dextrans were excited at 550 nm and detected at 575/5 nm. Background radioactivity and fluorescence signal from HBSS were subtracted from the measurements. […] Q is the flux of the test compound (μg/s), C0 is the initial concentration of the test compound at the apical side (μg/mL), and A is the surface area of the transwell membrane (cm^2).

[2] = cited from earlier work; for Hydrophilic/Lipophilic: classification in Table 1
[3] = Permeability of model drugs across epithelial (MDCK II) barrier on transwell after USMB or sham treatment; type: in vitro ADME, canine; conditions: dog, MDCK; 0 MPa (sham); apical-to-basolateral; read-out: apparent permeability coefficient (Papp)
Protocol: as §1

[4] = tested on: endothelial (HUVEC) barrier; test: Permeability of model drugs across endothelial (HUVEC) barrier on transwell; type: in vitro ADME, Human
Text: Supplementary Information: The Effect of Microbubble-As-sisted Ultrasound on Molecular Permeability across Cell Barri- […]
Charis Rousou, Josanne de Maar, Boning Qiu, Kim van der Wurff-Jacobs, Marika Ruponen, Arto Urtti, Sabrina Oliveira, Chrit Moonen, Gert Storm, Enrico Mastrobattista and Roel Deckers SI-1. Materials and methods
SI-1.1. Culture of endothelial cells
Human umbilical vein endothelial cells (HUVEC) were acquired from Lonza (Verviers, Belgium) and cultured in Endothelial Basal Medium (EBM-2) supplemented with growth factors (Growth Medium 2 SupplementMix®, PromoCell, Heidelberg Germany) and 0.1% antibiotics (gentamicin/amphotericin B, Gibco, New York, USA). Cells were sub-cultured 1-2 times per week in dilution ratios between 1:3-1:6 and were used up to passage number 7.
SI-1.2. Differentiation of endothelial cells […]
The effect of USMB treatment on the viability of epithelial cells was examined using the AlamarBlue assay. […] Next, the solution from the apical side was removed and fluorescence intensity was analyzed with a spectrofluorophotometer (FP 8300, Jasco) at excitation and emission wavelengths of 571 nm and 584/5 nm (center wavelength/bandwidth), respectively. Cell viability of each group was calculated as percentage fluorescent signal relative to that of sham treated cells. […]

total permeated amount [1] | Papp A→B at 120 min, 200 µM [3] | permeated amount ([4]; control samples (0 MPa), 120 minutes, endothelial barrier) | Papp endothelial (HUVEC) barrier relative to epithelial (MDCK II) barrier ([4]; sham treatment, absence of USMB) | SMILES | effect of USMB on permeability across epithelial barrier [1] | Hydrophilic/Lipophilic [2] | LogD ([2]; octanol/water partition coefficient at pH 7.4)
5.6 ± 1.4% |  |  |  | OC[C@@H](O)[C@@H](O)[C@H](O)[C@H](O)CO [Mannitol, mannitol] | did not have a significant effect; also recorded: lack of measurable effect | Hydrophilic | 
4.06% and 4.1 ± 0.5% | 0.06 ×10⁻⁶ cm/s | 5.14% | 22 times and ~ 20 times | O=C(O)c1ccc(C(=O)O)c(-c2c3ccc(=O)cc-3oc3cc(O)ccc23)c1 [6-carboxyfluorescein] | did not have a significant effect; also recorded: lack of measurable effect | Hydrophilic | −3.2
29.1 ± 2.2% |  |  |  | CC(C)NCC(O)COc1cccc2ccccc12 (stereo not shown) [Propranolol, propranolol] | did not have a significant effect | Lipophilic | 
